Laboratory results reported in patent US9139568B2 (Merck Patent GmbH, priority 2011, dated 2015).

Legend:
P70S6K = P70S6K (Homo sapiens (Human), UniProt P23443, T412E); experiment: P70S6K Enzyme Assay; type: biochemical; conditions: P70S6K T412E mutant, 24 μM ATP, mobility shift (Caliper)
Description: P70S6K inhibitor compounds are diluted and plated in 96 well plates. […] The reaction is incubated for 90 min at 25° C., before the addition of 10 mM EDTA to stop the reaction. The proportion of substrate and product (phosphorylated) peptide is analysed on a Caliper Life Sciences Lab Chip 3000, using a pressure of −1.4 psi, and upstream and downstream voltages of −3000 and −700 respectively. Product peaks are resolved before substrate peaks on the resulting chromatograms.

AKT = AKT (Homo sapiens (Human), UniProt P31749); experiment: AKT Enyzme Assay; type: biochemical; conditions: His-AKT (Full Length), 160 uM ATP, mobility shift (Caliper)
AKT, sequence (P31749 whole entry): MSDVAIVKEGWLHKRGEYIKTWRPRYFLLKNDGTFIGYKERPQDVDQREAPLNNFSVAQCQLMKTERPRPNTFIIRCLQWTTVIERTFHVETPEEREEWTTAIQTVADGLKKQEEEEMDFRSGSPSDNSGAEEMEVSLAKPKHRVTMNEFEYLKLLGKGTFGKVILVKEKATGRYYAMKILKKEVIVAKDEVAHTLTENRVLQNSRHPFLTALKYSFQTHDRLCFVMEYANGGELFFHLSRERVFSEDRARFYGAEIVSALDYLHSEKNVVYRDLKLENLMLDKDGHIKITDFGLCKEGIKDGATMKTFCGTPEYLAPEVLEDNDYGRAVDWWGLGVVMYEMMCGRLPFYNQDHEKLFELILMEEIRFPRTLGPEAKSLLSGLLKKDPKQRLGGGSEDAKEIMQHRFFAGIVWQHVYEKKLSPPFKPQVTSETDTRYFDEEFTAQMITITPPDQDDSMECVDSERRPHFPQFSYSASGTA
Description: A TTP Mosquito liquid handling instrument is used to place 125 nl of the appropriate concentration of inhibitor in 100% DMSO (for a dose response curve calculation) into each well of a 384-well plate.
The reaction is incubated for 90 min at 25 C, and then stopped by the addition of 70 μl of Stop buffer (100 mM HEPES pH 7.5, 0.015% Brij-35, 10 mM EDTA (Sigma, E7889)).
The plate is read on a Caliper LC 3000 in an Off-Chip mobility shift assay format, using the following parameters for a 12-sipper chip: screening pressure −2.3 psi, upstream voltage −500, and downstream voltage −3000. These conditions cause unphosphorylated substrate and phosphorylated product peptide to resolve as separate peaks allowing direct measurement of percentage of conversion of substrate to product. The percent conversion can be plotted against concentration of inhibitor to produce a sigmoidal dose response curve, from which an IC50 can be calculated.

P70S6K, sequence (P23443 1-421 T412E): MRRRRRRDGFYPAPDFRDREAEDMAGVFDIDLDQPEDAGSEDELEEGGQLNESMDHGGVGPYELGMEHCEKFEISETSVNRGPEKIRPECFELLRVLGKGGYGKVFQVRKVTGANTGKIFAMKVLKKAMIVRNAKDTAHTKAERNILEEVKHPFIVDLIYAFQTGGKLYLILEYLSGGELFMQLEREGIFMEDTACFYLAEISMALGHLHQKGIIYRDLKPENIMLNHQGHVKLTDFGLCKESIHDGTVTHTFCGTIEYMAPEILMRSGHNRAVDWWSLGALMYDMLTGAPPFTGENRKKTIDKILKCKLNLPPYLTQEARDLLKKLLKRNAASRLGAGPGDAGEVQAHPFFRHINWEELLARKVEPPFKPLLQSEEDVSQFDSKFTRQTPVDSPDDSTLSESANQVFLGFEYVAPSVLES

Row | IC50 (P70S6K) [µM] | IC50 (AKT) [µM] | SMILES
1 | 2.3 | > 100 | NC(=O)c1ccc(N2CCN(c3ccc(F)cc3)CC2)c2cncnc12 [Example 108, 5-[4-(4-fluorophenyl)-piperazin-1-yl]-quinazoline-8-carboxylic acid amide]
2 | 0.38 | 8.1 | NC(=O)c1ccc(N2CCC(c3cccc(C(F)(F)F)c3)C(N)C2)c2cncnc12 (racemic) [Example 107, 5-[3-Amino-4-(3-trifluoromethyl-phenyl)-piperidin-1-yl]-quinazoline-8-carboxylic acid amide]
3 | 0.05 | 0.85 | NC(=O)c1ccc(N[C@H]2CNCC[C@@H]2c2ccc(F)c(Cl)c2)c2cncnc12 (single isomer, unassigned) [Example 77]
4 | 0.0081 | 0.13 | NC(=O)c1ccc(NC2CNCCC2c2ccc(Cl)c(F)c2)c2cncnc12 (centres unmarked) [Example 75, 5-((4-(4-chloro-3-fluorophenyl)piperidin-3-yl)amino)quinazoline-8-carboxamide]
5 | 20 | > 100 | CN1CCC(Nc2ccc(C(N)=O)c3ncncc23)C1 (racemic) [Example 58, 5-((1-methylpyrrolidin-3-yl)amino)quinazoline-8-carboxamide]
6 | 0.24 | 3.1 | NC(=O)c1ccc(N2CCC(CCc3ccccc3)C2)c2cncnc12 (racemic) [Example 64, 5-(3-phenethylpyrrolidin-1-yl)quinazoline-8-carboxamide]
7 | 0.71 | > 100 | NC(=O)c1ccc(N2CCC(OCc3ccccc3)C2)c2cncnc12 (racemic) [Example 65, 5-(3-(benzyloxy)pyrrolidin-1-yl)quinazoline-8-carboxamide]
8 | 1.6 | 70 | NC(=O)c1ccc(NCc2cccnc2)c2cncnc12 [Example 62, 5-((pyridin-3-ylmethyl)amino)quinazoline-8-carboxamide]
9 | 4.8 | > 100 | NC(=O)c1ccc(NC[C@@H]2CCNC2)c2cncnc12 [Example 60, (R)-5-((pyrrolidin-3-ylmethyl)amino)quinazoline-8-carboxamide]
10 | 1 | > 100 | NC(=O)c1ccc(N2CCN(c3ccc(F)c(F)c3)CC2)c2cncnc12 [Example 92, 5-[4-(3,4-difluoro-phenyl)-piperazin-1-yl]-quinazoline-8-carboxylic acid amide]
11 | 0.55 | 2.5 | NC(=O)c1ccc(NC2CCNCC2c2ccc(F)cc2)c2cncnc12 (centres unmarked) [Example 70, 5-((3-(4-fluorophenyl)piperidin-4-yl)amino)quinazoline-8-carboxamide]
12 | 0.19 | 8.2 | Cc1cccc([C@@H]2CN(c3ccc(C(N)=O)c4ncncc34)C[C@H]2CO)c1 [Example 67, 5-((3S,4R)-3-(hydroxymethyl)-4-(m-tolyl)pyrrolidin-1-yl)quinazoline-8-carboxamide]
13 | 5.9 | 18 | CNCC1CCCN(c2ccc(C(N)=O)c3ncncc23)C1 (racemic) [Example 59, 5-(3-((methylamino)methyl)piperidin-1-yl)quinazoline-8-carboxamide]
14 | 10 | > 100 | NC(=O)c1ccc(N2CCN(c3cccc(Cl)c3)CC2)c2cncnc12 [Example 96, 5-[4-(3-chloro-phenyl)-piperazin-1-yl]-quinazoline-8-carboxylic acid amide]
15 | 0.089 | 5.6 | NC(=O)c1ccc(NCCc2ccccc2)c2cncnc12 [Example 98, 5-(phenethylamino)quinazoline-8-carboxamide]
16 | 3 | 15 | NC(=O)c1ccc(N2CCN(c3ccccc3)CC2)c2cncnc12 [Example 91, 5-[4-phenyl-piperazin-1-yl]-quinazoline-8-carboxylic acid amide]
17 | 0.22 | 14 | CN(CCc1ccccc1)c1ccc(C(N)=O)c2ncncc12 [Example 103, 5-[methyl(phenethyl)amino]quinazoline-8-carboxamide]
18 | 0.29 | 2 | NC(=O)c1ccc(NC2CNCCC2c2ccc(F)cc2)c2cncnc12 (centres unmarked) [Example 79, 5-((4-(4-fluorophenyl)piperidin-3-yl)amino)quinazoline-8-carboxamide]
19 | 0.29 | 4.8 | NC(=O)c1ccc(NCCc2ccc(F)cc2)c2cncnc12 [Example 100, 5-[2-(4-fluorophenyl)ethylamino]quinazoline-8-carboxamide]
20 | 0.0592 | 12 | NC(=O)c1ccc(NCc2cccc(Cl)c2)c2cncnc12 [Example 63, 5-((3-chlorobenzyl)amino)quinazoline-8-carboxamide]
21 | 11 | 23 | NC(=O)c1ccc(N2CCN(c3cccc(C(F)(F)F)c3)CC2)c2cncnc12 [Example 109, 5-[4-(3-trifluoromethylphenyl)-piperazin-1-yl]-quinazoline-8-carboxylic acid amide]
22 | 0.36 | 41 | NC(=O)c1ccc(NCCc2ccc(F)c(F)c2)c2cncnc12 [Example 101, 5-[2-(3,4-difluorophenyl)ethylamino]quinazoline-8-carboxamide]
23 | 24 | > 100 | NC(=O)c1ccc(N2CCN(c3ccc(C(F)(F)F)cc3)CC2)c2cncnc12 [Example 90, 5-[4-(4-Trifluoromethyl-phenyl)-piperazin-1-yl]-quinazoline-8-carboxylic acid amide]
24 | 12 | > 100 | NC(=O)c1ccc(N2CCN(c3ccc(F)c(Cl)c3)CC2)c2cncnc12 [Example 94, 5-[4-(3-chloro-4-fluorophenyl)-piperazin-1-yl]-quinazoline-8-carboxylic acid amide]
25 | 0.033 | 0.57 | NC(=O)c1ccc(NC2CNCCC2c2ccc(F)c(Cl)c2)c2cncnc12 (centres unmarked) [Example 76, 5-((4-(3-chloro-4-fluorophenyl)piperidin-3-yl)amino)quinazoline-8-carboxamide]
26 | 22 | > 100 | Cc1cccc(N2CCC(Nc3ccc(C(N)=O)c4ncncc34)CC2)c1 [Example 57, 5-((1-(m-tolyl)piperidin-4-yl)amino)quinazoline-8-carboxamide]
27 | 0.087 | > 100 | NC(=O)c1ccc(NCCCCc2ccccc2)c2cncnc12 [Example 102, 5-(4-phenylbutylamino)quinazoline-8-carboxamide]
28 | 0.77 | 6.4 | NC(=O)c1ccc(N2CCN(c3cccc(F)c3)CC2)c2cncnc12 [Example 95, 5-[4-(3-fluoro-phenyl)-piperazin-1-yl]-quinazoline-8-carboxylic acid amide]
